{
  "source": "paper PMC4233664",
  "about": "“Synergistic Effects of Clopidogrel and Fufang Danshen Dripping Pills by Modulation of the Metabolism Target and Pharmacokinetics” (Evidence-based Complementary and Alternative Medicine : eCAM, 2014)",
  "key": {"[1]": {"test": "Pharmacokinetic study of CPGS in rat plasma after oral clopidogrel alone or with FDDP", "assay_type": "in vivo, SD rats", "method": "Analyses were performed using the Agilent HPLC 1100 system (Agilent, USA) consisting of a quat pump (G1311A), an autosampler (G1313A), and an online degasser (G1322A). The chromatographic separation was performed on an Agilent Zorbax SB C18 column (4.6 mm × 250 mm, 5 μm). A simple gradient method was used, in which the percentage of acetonitrile-buffer (0.2% phosphoric acid in water) was varied as shown in Table 1 at a flow rate of 1.0 mL/min. The injection volume was 10 μL. The total LC run time was 12 min with the column temperature kept at 30°C and the detection at a wavelength of 220 nm.\nAn aliquot of 10 μL 1 M hydrochloric acid (HCL), 100 μL blood plasma, and 10 μL of IS (160 μg/mL) was added into a 1.5 mL centrifuge tube. After vortex-mixing for 1 min, 1 mL of extraction solvent (ethyl acetate-dichloromethane; 4 : 1, V/V) was added and vortexed vigorously for 4 min, followed by centrifugation for 12 min at 12000 rpm. Next, 950 μL of supernatant was transferred into another tube and evaporated to dryness at 40°C for 90 min under a gentle stream of nitrogen. The residue was reconstituted with 100 μL of the mobile phase and vortexed for 1 min and then centrifuged for 5 min at 12000 rpm. For analysis, 10 μL of the supernatant was injected onto the HPLC system. The plasma concentrations of the analytes exceeded the upper limit of quantification, and therefore the sample was diluted with blank plasma and vortexed for 1 min. A 100 μL aliquot of diluted sample was processed under the same sample pretreatment procedure as mentioned above.\nThe preclinical pharmacokinetic study was based on 16 SD rats. The investigation was approved by the Animal Ethics Committee of the Nanjing University of Traditional Chinese Medicine. Two groups of 8 rats each were used according to a parallel study. The clopidogrel-only group received 30 mg/kg oral administration of clopidogrel. The combination group (clopidogrel 30 mg/kg + FDDP 324 mg/kg) received their dose administered as a combination. The rats fasted for 12 h prior to the experiment, while free access to water remained. Plasma samples were collected at 0, 0.25, 0.5, 1, 1.5, 2.3, 4, 6, 8, 10, 12, and 24 h after dosing. Blood samples of 400 μL were obtained via an in-dwelling catheter in the caudal vein and collected into heparinized tubes. Then, the plasma was centrifuged for 10 min at 4000 rpm and the supernatant was transferred to labelled plastic vials at −80°C until the completion of the analysis.\nPharmacokinetic parameters were calculated using Drug and Statistic (DAS) 3.0 pharmacokinetic software (Chinese Pharmacological Association, Anhui, China). The pharmacokinetic parameters included the compartment parameters and statistical parameters (Table 6).\nThe area under the plasma concentration-time curve (AUC) was calculated using the linear trapezoidal rule. The elimination rate constant (kel) was calculated by linear regression of the terminal points of the semilog plot of the plasma concentration against time. The half-life of drug elimination during the terminal phase (t 1/2) was calculated from the formula t 1/2 = 0.693/kel. Mean residence time (MRT) was calculated as AUMC/AUC, where AUMC is the area under the first moment of the plasma concentration-time curve. The volume of distribution (Vd) of the central compartment was calculated as dose/C 0, where C 0 is the concentration measured just after the administration. Plasma clearance (CL) was calculated as dose/AUC."}, "[2]": {"test": "Stability of CPGS in plasma samples (HPLC method validation)", "assay_type": "physicochemical, rat", "method": "Stability experiments were performed to evaluate the analyte stability in stock solutions and in plasma samples under different conditions. Room temperature stability, refrigerated stability of extracted sample, freeze-thaw stability, and long-term stability were performed using three replicates at each QC level."}, "[3]": {"tested_on": "cytochrome P450 (CYP)", "conditions": "cited from earlier work"}, "[4]": {"tested_on": "carboxyl esterase 1 (CES1)", "conditions": "in the liver; cited from earlier work"}, "[5]": {"tested_on": "antiplatelet responses", "conditions": "conventional doses of clopidogrel; cited from earlier work"}, "[6]": {"conditions": "CPGS in rat plasma, clopidogrel 30 mg/kg intragastric, administered alone, 21 days"}, "[7]": {"conditions": "CPGS in rat plasma, coadministration clopidogrel 30 mg/kg + FDDP 324 mg/kg intragastric, 21 days"}, "[8]": {"conditions": "CPGS in rat plasma, coadministration clopidogrel 30 mg/kg + FDDP 324 mg/kg intragastric, 21 days, P < 0.05 vs clopidogrel-only"}, "[9]": {"conditions": "combination vs clopidogrel alone, rats"}, "[10]": {"conditions": "combination vs clopidogrel-only group, rats"}, "[11]": {"conditions": "combination vs clopidogrel-only group, rats, not statistically significant"}},
  "data": [
    {"compound": "O=C(O)[C@H](c1ccccc1Cl)N1CCc2sccc2C1", "note": "[CPGS]", "values": [
      {"measurement": "AUC (0–tn)", "setting": "[1]; [6]", "value": "90.529 ± 18.557", "unit": "mg/L∗h"},
      {"measurement": "AUC (0–∞)", "setting": "[1]; [6]", "value": "104.965 ± 24.367", "unit": "mg/L∗h"},
      {"measurement": "CL/F", "setting": "[1]; [6]", "value": "5.15 ± 2.08", "unit": "mL/min/kg"},
      {"measurement": "Ka", "setting": "[1]; [6]", "value": "6.807 ± 6.698"},
      {"measurement": "MAT", "setting": "[1]; [6]", "value": "13.336 ± 2.566", "unit": "h"},
      {"measurement": "MRT (0–tn)", "setting": "[1]; [6]", "value": "7.453 ± 0.747", "unit": "h"},
      {"measurement": "MRT (0–∞)", "setting": "[1]; [6]", "value": "11.359 ± 2.022", "unit": "h"},
      {"measurement": "T1/2β", "setting": "[1]; [6]", "value": "14.788 ± 14.311", "unit": "h"},
      {"measurement": "T max", "setting": "[1]; [6]", "value": "1.208 ± 0.332", "unit": "h"},
      {"measurement": "V/F", "setting": "[1]; [6]", "value": "5.079 ± 2.153", "unit": "L/kg"},
      {"measurement": "AUC (0–tn)", "setting": "[1]; [7]", "value": "70.314 ± 35.213", "unit": "mg/L∗h"},
      {"measurement": "AUC (0–∞)", "setting": "[1]; [7]", "value": "76.324 ± 39.971", "unit": "mg/L∗h"},
      {"measurement": "C max", "setting": "[1]; [7]", "value": "10146 ± 4848", "unit": "ng/mL"},
      {"measurement": "CL/F", "setting": "[1]; [7]", "value": "7.58 ± 3.07", "unit": "mL/min/kg"},
      {"measurement": "Ka", "setting": "[1]; [7]", "value": "2.519 ± 3.073"},
      {"measurement": "MRT (0–tn)", "setting": "[1]; [7]", "value": "6.871 ± 0.741", "unit": "h"},
      {"measurement": "T1/2β", "setting": "[1]; [7]", "value": "19.495 ± 18.931", "unit": "h"},
      {"measurement": "T max", "setting": "[1]; [7]", "value": "1.583 ± 0.376", "unit": "h"},
      {"measurement": "V/F", "setting": "[1]; [7]", "value": "9.987 ± 9.820", "unit": "L/kg"},
      {"measurement": "MAT", "setting": "[1]; [8]", "value": "8.198 ± 3.556", "unit": "h"},
      {"measurement": "MRT (0–∞)", "setting": "[1]; [8]", "value": "8.854 ± 1.873", "unit": "h"},
      {"measurement": "Change of area under the curve of CPGS by FDDP", "setting": "[1]; [9]", "value": "decreased"},
      {"measurement": "Change of peak plasma concentration of CPGS by FDDP", "setting": "[1]; [9]", "value": "decreased"},
      {"measurement": "Change of MAT of CPGS in the combination group", "setting": "[1]; [10]", "value": "greater degrees of decline"},
      {"measurement": "Change of MRT (0-∞) of CPGS in the combination group", "setting": "[1]; [10]", "value": "greater degrees of decline"},
      {"measurement": "Change of CL/F of CPGS in the combination group", "setting": "[1]; [11]", "value": "slightly higher"},
      {"measurement": "Change of T max of CPGS in the combination group", "setting": "[1]; [11]", "value": "slightly higher"},
      {"measurement": "Pharmacokinetic model describing CPGS", "setting": "[1]; rat plasma after clopidogrel alone or with FDDP", "value": "two-compartment open model"},
      {"measurement": "Stability in extracted plasma samples", "setting": "[2]; 24 h at room temperature", "value": "stable"},
      {"measurement": "Long-term stability of spiked plasma samples", "setting": "[2]; stored at −20°C, 20 days", "value": "stable"}
    ]},
    {"compound": "COC(=O)[C@H](c1ccccc1Cl)N1CCc2sccc2C1", "note": "[clopidogrel]", "values": [
      {"measurement": "Share of absorbed clopidogrel dose transformed by CYP into thiol metabolite", "setting": "[3]", "value": 15, "unit": "%"},
      {"measurement": "Share of absorbed parent drug transformed by CES1 into inactive carboxylic acid derivative (CPGS)", "setting": "[4]", "value": 85, "unit": "%"},
      {"measurement": "Patients displaying inadequate antiplatelet responses", "setting": "[5]", "value": "5–40%"}
    ]}
  ]
}
